Laboratory results: EP4417190A1, “CYCLIC PEPTIDES WITH ANTI-AGING EFFICACY” (Lipotrue, S.L., priority 2023, dated 2024)

Tests used:
Caspase 3 (CASP3) = experiment: Caspase 3 activity under BFA-induced endoplasmic reticulum stress in HEKa (Caspase-Glo 3/7); assay type: cell-based, human; conditions: BFA-induced ER stress, 24 h, vs BFA-treated cells (Figure 5)
Description: Caspase 3 (CASP3) is a protein member of the cysteine-aspartic acid protease family. Sequential activation of caspases plays a central role in the execution-phase of cell apoptosis. It was evaluated the effect of the cycled peptide B on the caspase 3 activity in human epidermal keratinocytes from adult (HEKa) subjected to endoplasmic reticulum (ER) stress.
HEKa cells were seeded in a black 96-well plate at a density of 18.000 cell/well in Dermal Cell Basal Medium (DCBM) and incubated at 37 °C in a humidified atmosphere with 5% CO2. After 24 h of incubation, cells were treated with 0.15 µg/mL BFA alone or in the presence of 0.005 mg/mL of the cycled peptide B and returned to the incubator for 24 h more. Untreated cells (Basal) were used as negative control samples. 24 hours after treatment, caspase 3 activity was evaluated using Caspase-Glo® 3/7 Assay System, following manufacturer instructions.
Each condition was performed at least in triplicates (n=3) in three independent experiments (N=3). For all data, mean values of relative fluorescence units (RFU) of the different experiments and SEM values are shown. All data was normalized as follows: % vs BFA = (RFU treated cells)/(RFU BFA treated cells) × 100 [formula]
Statistical data analysis was performed using Student t-test by comparison of % activity from test substance vs BFA-treated cells, *p<0.05, **p<0.01, ***p<0.001.

calreticulin (CALR) = experiment: Calreticulin immunofluorescence quantification in HEKa; assay type: cell-based, human; conditions: 0.005 mg/mL, 24 h
Description: The effect of the cycled peptide on the expression of calreticulin (CALR) in human epidermal keratinocytes from adult (HEKa) was analyzed through fluorescence microscopy evaluation.
HEKa cells were cultured on coverslips in Dermal Cell Basal Medium (DCBM) at a density of 50.000 cell/well and incubated at 37 °C in a humidified atmosphere with 5% CO2. When cell confluence was around 80%, cells were treated with cycled peptide B at 0.005 mg/mL for 24 h. After treatment, samples were washed twice with PBS, fixed with 4% formaldehyde and permeabilized with Triton X-100 0.2%. Next, samples were blocked for 1 hour with PBS/BSA 5%, in order to avoid nonspecific antibody binding. […]
Images were analyzed using Image J software. Shortly, threshold was adjusted to select CALR staining and mean fluorescent was measured. The number of cells was counted using the DAPI staining. […] Finally, all data was normalized as follows to obtain the % of CALR compared to untreated cells (Basal): % vs Basal = (fluorescence per cell in treated samples)/(fluorescence per cell in untreated samples) × 100 [formula]
Statistical data analysis was performed using Student t-test by comparison of % fluorescence from peptide B treated samples vs. untreated samples, (*, p < 0.05; **, p < 0.01 and ***, p < 0.001).

[1] = system: human immunoglobulin binding protein (BiP); experiment: BiP ELISA in HEKa cell lysates; assay type: cell-based; conditions: 24 hours
Description: The effect of cycled peptides was determined on the production of human immunoglobulin binding protein (BiP) in human epidermal keratinocytes from adult (HEKa), through quantification of this protein in vitro in cell culture lysates by enzyme linked immunosorbent assay (ELISA).
In this study the BiP levels in human epidermal keratinocytes treated with cycled peptide B was evaluated, through quantification of this protein in vitro in cell culture lysates by enzyme linked immunosorbent assay (ELISA).
HEKa cells were seeded in a 24-well plate at a density of 50.000 cells/well and maintained at standard culture conditions (Supplemented Dermal Cell Basal Medium, DCBM; 37°C, 95% RH, 5% CO2) for 24 hours. Then, keratinocytes were treated for 24 hours with or without the presence of 0.01 or 0.05 mg/mL of cycled peptide A or peptide B. After treatment, cells were lysed with RIPA buffer and lysates were collected and centrifuged in order to eliminate cell debris and were kept at -80°C until they were used for BiP quantification with BiP ELISA Kit according to manufacturer instructions. In order to normalize data, total protein content of each sample was quantified through Micro BCA Protein Assay kit according to manufacturer instructions.
Each condition was performed at least in triplicate (n=3) in three independent experiments (N=3). For all data, mean values of the different experiments and SEM values are shown. All data was first normalized as follows: BiP levels/cell = (BiP levels per well)/(Total protein (BCA) per well) [formula] % vs Basal = (BiP per cell in treated samples)/(Bip per cell in untreated samples) × 100 [formula]
Statistical data analysis was performed using Student t-test by comparison of % BiP expression from cells untreated (Basal) vs. treated with cycled peptide samples, *p<0.05, **p<0.01, ***p<0.001.

**Q.** Which results are given for `CC(C)C[C@@H]1NC(=O)[C@H](C)NC(=O)[C@H](Cc2c[nH]cn2)NC(=O)[C@H](Cc2c[nH]c3ccccc23)NC(=O)[C@H](Cc2ccccc2)NC(=O)[C@H](CCCNC(=N)N)NC1=O` [Peptide B, cyclo-Phe-Trp- His- Ala-Leu-Arg]?
**A.** caspase 3 activity (Caspase 3 (CASP3)): significantly reduce; % Mean (CALR fluorescence per cell, % vs Basal) (calreticulin (CALR)): 179.45%; increased CALR levels when compared with untreated cells (calreticulin (CALR)): up to 79%; % Mean (BiP per cell, % vs Basal) ([1]; 0.01 mg/mL): 110.18%; % Mean (BiP per cell, % vs Basal) ([1]; 0.05 mg/mL): 123.74%; increase of BiP levels, increment when compared with untreated cells (Basal) ([1]; concentration dependent): up to 24%
